Tests used:
[1] = target: T1, Human Tryptophan 2,3-dioxygenase (TDO) (Homo sapiens, UniProt P48775); assay: Human TDO enzymatic assay (kynurenine level); type: biochemical; details: 1 nM TDO, 350 μM L-Trp; geometric mean; read-out: TDO GMean: IC50 (μM) (Biochemical Assay)
T1 construct: His tag (N); made in house; host or cells: E. coli
Method in brief: (§1)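 IDO conditions: 6 nM His-IDO, 10 μM L-Trp, 5 μM methylene blue, 20 min, RT. TDO conditions: 1 nM His-TDO, 350 μM L-Trp, 0.4 μM methylene blue, 70 min, RT. Both used pH 6.5 phosphate plus ascorbate/catalase, TCA stop at 50° C, kynurenine readout, nonlinear-regression IC50.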

[2] = target: T2, human TDO (TDO-expressing HEK293 cells) (Homo sapiens, UniProt P48775); assay: Cell based kynurenine assay, TDO-expressing HEK293 cell clones; details: TDO-expressing HEK293 cells, 24 hours, geometric mean; read-out: HEK293 TDO Kynurenine GMean IC50 (μM) (Cellular Assay)
T2 construct: expressed in transfected cells
T2 sequence (P48775 whole entry): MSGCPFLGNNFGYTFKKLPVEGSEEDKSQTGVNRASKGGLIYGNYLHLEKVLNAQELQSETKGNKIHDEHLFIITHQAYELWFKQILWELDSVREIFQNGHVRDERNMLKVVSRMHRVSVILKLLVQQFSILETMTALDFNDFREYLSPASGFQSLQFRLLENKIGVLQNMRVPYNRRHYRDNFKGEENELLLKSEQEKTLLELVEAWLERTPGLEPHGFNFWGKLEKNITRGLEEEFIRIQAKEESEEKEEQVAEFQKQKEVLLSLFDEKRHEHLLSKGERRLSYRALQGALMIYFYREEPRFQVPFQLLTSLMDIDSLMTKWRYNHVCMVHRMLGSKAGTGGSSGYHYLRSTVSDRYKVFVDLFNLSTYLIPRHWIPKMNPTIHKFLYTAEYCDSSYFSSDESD
Method in brief: (§2)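 Kynurenine in culture supernatant read after 24 h compound exposure of HEK293 cells stably expressing human IDO1 or TDO. IC50 from nonlinear regression of % inhibition relative to 0.2% DMSO cell (high) and media-only (low) controls.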

[3] = target: T3, human IDO (IDO1-expressing HEK293 cells) (Homo sapiens, UniProt P14902); assay: Cell based kynurenine assay, IDO1-expressing HEK293 cell clones; details: IDO1-expressing HEK293 cells, 24 hours, geometric mean; read-out: HEK293 IDO1 Kynurenine GMean IC50 (μM) (Cellular Assay)
T3 construct: expressed in transfected cells
T3 sequence (P14902 whole entry): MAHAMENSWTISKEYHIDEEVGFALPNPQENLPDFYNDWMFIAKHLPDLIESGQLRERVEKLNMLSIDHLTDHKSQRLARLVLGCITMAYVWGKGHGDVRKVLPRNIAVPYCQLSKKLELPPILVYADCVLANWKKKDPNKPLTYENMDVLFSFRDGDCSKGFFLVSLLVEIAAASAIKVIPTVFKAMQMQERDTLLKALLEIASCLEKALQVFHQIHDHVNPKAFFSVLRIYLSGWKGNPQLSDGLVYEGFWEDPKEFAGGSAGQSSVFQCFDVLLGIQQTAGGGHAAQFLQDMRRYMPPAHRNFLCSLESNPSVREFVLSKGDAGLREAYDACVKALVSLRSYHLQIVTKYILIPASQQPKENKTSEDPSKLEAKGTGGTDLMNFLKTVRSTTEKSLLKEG
Method in brief: as §2

[4] = target: T4, Human Indoleamine 2,3-dioxygenase (IDO) (Homo sapiens, UniProt P14902); assay: Human IDO enzymatic assay (kynurenine level); type: biochemical; details: 6 nM IDO, 10 μM L-Trp; geometric mean; read-out: IDO1 GMean: IC50 (μM) (Biochemical Assay)
T4 construct: His tag (N); made in house; host or cells: E. coli
T4 sequence (P14902 whole entry): as above
Method in brief: as §1

T1 sequence (P48775 whole entry): as the sequence (P48775 whole entry) above

SMILES	IC50 [1] [µM]	IC50 [2] [µM]	IC50 [3] [µM]	IC50 [4] [µM]
CC(C)(C1CCN(C(=O)NCC2CC2)CC1)C(O)c1cc(Cl)cc2cn[nH]c12 (stereo not shown) [Compound P-0473, 4-(1-(5-chloro-1H-indazol-7-yl)-1-hydroxy-2-methylpropan-2-yl)-N-(cyclopropylmethyl) piperidine-1-carboxamide]	0.0001 to 10	0.0001 to 10	0.0001 to 10	0.0001 to 10
CC(C)(C1CCN(C(=O)C2C(C)(C)C2(C)C)CC1)C(O)c1cc(Cl)cc2cn[nH]c12 (stereo not shown) [Compound P-0474, (4-(1-(5-chloro-1H-indazol-7-yl)-1-hydroxy-2-methylpropan-2-yl)piperidin-1-yl)(2,2,3,3-tetramethylcyclopropyl) methanone]	0.0001 to 10	0.0001 to 10	0.0001 to 10	0.0001 to 10
CC(C)(O)CNC(=O)N1CCC(C(C)(C)C(O)c2cc(Cl)cc3cn[nH]c23)CC1 (stereo not shown) [Compound P-0475, 4-(1-(5-chloro-1H-indazol-7-yl)-1-hydroxy-2-methylpropan-2-yl)-N-(2-hydroxy-2-methylpropyl) piperidine-1-carboxamide]	0.0001 to 10	0.0001 to 10	0.0001 to 10	0.0001 to 10
CC(C)(C1CCN(C(=O)NCCO)CC1)C(O)c1cc(Cl)cc2cn[nH]c12 (stereo not shown) [Compound P-0476, 4-(1-(5-chloro-1H-indazol-7-yl)-1-hydroxy-2-methylpropan-2-yl)-N-(2-hydroxyethyl) piperidine-1-carboxamide]	0.0001 to 10	0.0001 to 10	0.0001 to 10	0.0001 to 10
CC(C)(C1CCN(C(=O)NCc2ccccn2)CC1)C(O)c1cc(Cl)cc2cn[nH]c12 (stereo not shown) [Compound P-0477, 4-(1-(5-chloro-1H-indazol-7-yl)-1-hydroxy-2-methylpropan-2-yl)-N-(pyridin-2-ylmethyl)piperidine-1-carboxamide]	0.0001 to 10	0.0001 to 10	0.0001 to 10	0.0001 to 10
C[C@H](NC(=O)N1CCC(C(C)(C)C(O)c2cc(Cl)cc3cn[nH]c23)CC1)c1ccccn1 (stereo partly drawn) [Compound P-0478, 4-(1-(5-chloro-1H-indazol-7-yl)-1-hydroxy-2-methylpropan-2-yl)-N-((S)-1-(pyridin-2-yl)ethyl)piperidine-1-carboxamide]	0.0001 to 10	0.0001 to 10	0.0001 to 10	0.0001 to 10
C[C@@H](NC(=O)N1CCC(C(C)(C)C(O)c2cc(Cl)cc3cn[nH]c23)CC1)c1ccccn1 (stereo partly drawn) [Compound P-0479, 4-(1-(5-chloro-1H-indazol-7-yl)-1-hydroxy-2-methylpropan-2-yl)-N-((R)-1-(pyridin-2-yl)ethyl)piperidine-1-carboxamide]	0.0001 to 10	0.0001 to 10	0.0001 to 10	0.0001 to 10
O=C(CC1CCOCC1)N1CCC(C(F)(F)C(O)c2cc(Cl)cc3cn[nH]c23)CC1 (stereo not shown) [Compound P-0480, 1-(4-(2-(5-chloro-1H-indazol-7-yl)-1,1-difluoro-2-hydroxyethyl)piperidin-1-yl)-2-(tetrahydro-2H-pyran-4-yl)ethan-1-one]	0.0001 to 10	0.0001 to 10	0.0001 to 10	0.0001 to 10

More lines, now with the values ahead:

IC50 [1] [µM]	IC50 [2] [µM]	IC50 [3] [µM]	IC50 [4] [µM]	SMILES
0.0001 to 10	0.0001 to 10	0.0001 to 10	0.0001 to 10	O=C(NC1CCOCC1)N1CCC(C(F)(F)C(O)c2cc(Cl)cc3cn[nH]c23)CC1 (stereo not shown) [Compound P-0462, 4-(2-(5-chloro-1H-indazol-7-yl)-1,1-difluoro-2-hydroxyethyl)-N-(tetrahydro-2H-pyran-4-yl)piperidine-1-carboxamide]
0.0001 to 10	> 10	0.0001 to 10	0.0001 to 10	O=C(NC1CCS(=O)(=O)CC1)N1CCC(C(F)(F)C(O)c2cc(Cl)cc3cn[nH]c23)CC1 (stereo not shown) [Compound P-0463, 4-(2-(5-chloro-1H-indazol-7-yl)-1,1-difluoro-2-hydroxyethyl)-N-(1,1-dioxidotetrahydro-2H-thiopyran-4-yl)piperidine-1-carboxamide]
0.0001 to 10	0.0001 to 10	0.0001 to 10	0.0001 to 10	O=C(NC1COC1)N1CCC(C(F)(F)C(O)c2cc(Cl)cc3cn[nH]c23)CC1 (stereo not shown) [Compound P-0464, 4-(2-(5-chloro-1H-indazol-7-yl)-1,1-difluoro-2-hydroxyethyl)-N-(oxetan-3-yl)piperidine-1-carboxamide]
0.0001 to 10	0.0001 to 10	0.0001 to 10	0.0001 to 10	O=C(NCC1(O)CC1)N1CCC(C(F)(F)C(O)c2cc(Cl)cc3cn[nH]c23)CC1 (stereo not shown) [Compound P-0465, 4-(2-(5-chloro-1H-indazol-7-yl)-1,1-difluoro-2-hydroxyethyl)-N-((1-hydroxycyclopropyl)methyl)piperidine-1-carboxamide]
0.0001 to 10	0.0001 to 10	0.0001 to 10	0.0001 to 10	CC(C)(O)CNC(=O)N1CCC(C(F)(F)C(O)c2cc(Cl)cc3cn[nH]c23)CC1 (stereo not shown) [Compound P-0466, 4-(2-(5-chloro-1H-indazol-7-yl)-1,1-difluoro-2-hydroxyethyl)-N-(2-hydroxy-2-methylpropyl) piperidine-1-carboxamide]
0.0001 to 10	> 10	0.0001 to 10	0.0001 to 10	O=C(NCC1CCS(=O)(=O)CC1)N1CCC(C(F)(F)C(O)c2cc(Cl)cc3cn[nH]c23)CC1 (stereo not shown) [Compound P-0467, 4-(2-(5-chloro-1H-indazol-7-yl)-1,1-difluoro-2-hydroxyethyl)-N-((1,1-dioxidotetrahydro-2H-thiopyran-4-yl)methyl)piperidine-1-carboxamide]
0.0001 to 10	0.0001 to 10	0.0001 to 10	0.0001 to 10	O=C(NCC1CCOCC1)N1CCC(C(F)(F)C(O)c2cc(Cl)cc3cn[nH]c23)CC1 (stereo not shown) [Compound P-0468, 4-(2-(5-chloro-1H-indazol-7-yl)-1,1-difluoro-2-hydroxyethyl)-N-((tetrahydro-2H-pyran-4-yl)methyl)piperidine-1-carboxamide]
0.0001 to 10	0.0001 to 10	0.0001 to 10	0.0001 to 10	CC(C)(C)OC(=O)N1CCC(C(F)(F)C(O)c2cc(Cl)cc3cn[nH]c23)CC1 (stereo not shown) [Compound P-0469, tert-butyl 4-(2-(5-chloro-1H-indazol-7-yl)-1,1-difluoro-2-hydroxyethyl) piperidine-1-carboxylate]
0.0001 to 10	0.0001 to 10	0.0001 to 10	0.0001 to 10	CC(C)(C1CCN(C(=O)Nc2cccs2)CC1)C(O)c1cc(Cl)cc2cn[nH]c12 (stereo not shown) [Compound P-0470, 4-(1-(5-chloro-1H-indazol-7-yl)-1-hydroxy-2-methylpropan-2-yl)-N-(thiophen-2-yl)piperidine-1-carboxamide]
0.0001 to 10	0.0001 to 10	0.0001 to 10	0.0001 to 10	CC(C)(C1CCN(C(=O)NCS(C)(=O)=O)CC1)C(O)c1cc(Cl)cc2cn[nH]c12 (stereo not shown) [Compound P-0471, 4-(1-(5-chloro-1H-indazol-7-yl)-1-hydroxy-2-methylpropan-2-yl)-N-((methylsulfonyl)methyl)piperidine-1-carboxamide]
0.0001 to 10	0.0001 to 10	0.0001 to 10	0.0001 to 10	CC(C)(C1CCN(C(=O)NCCC(F)(F)F)CC1)C(O)c1cc(Cl)cc2cn[nH]c12 (stereo not shown) [Compound P-0472, 4-(1-(5-chloro-1H-indazol-7-yl)-1-hydroxy-2-methylpropan-2-yl)-N-(3,3,3-trifluoropropyl) piperidine-1-carboxamide]
